US6784167B2, “17-beta-hydroxysteroid dehydrogenase-II inhibitors” (Bayer Pharmaceuticals Corporation, priority 2000, dated 2004)
Like-named read-outs stand apart in the source and are kept apart here.

Tests used:
[1] = molecular target: T1, 17-Beta HSD II Enzyme (Homo sapiens, UniProt P37059); assay: Primary assay: inhibition of 17-Beta HSD II enzyme (estradiol/NAD, PMS:MTS colorimetric readout at 490 nm); format: biochemical; settings: Table 7, baculovirus-expressed recombinant HSD II, estradiol substrate
T1 construct: made in house; host or cells: insect cells (baculovirus)
T1 sequence (P37059 1-387): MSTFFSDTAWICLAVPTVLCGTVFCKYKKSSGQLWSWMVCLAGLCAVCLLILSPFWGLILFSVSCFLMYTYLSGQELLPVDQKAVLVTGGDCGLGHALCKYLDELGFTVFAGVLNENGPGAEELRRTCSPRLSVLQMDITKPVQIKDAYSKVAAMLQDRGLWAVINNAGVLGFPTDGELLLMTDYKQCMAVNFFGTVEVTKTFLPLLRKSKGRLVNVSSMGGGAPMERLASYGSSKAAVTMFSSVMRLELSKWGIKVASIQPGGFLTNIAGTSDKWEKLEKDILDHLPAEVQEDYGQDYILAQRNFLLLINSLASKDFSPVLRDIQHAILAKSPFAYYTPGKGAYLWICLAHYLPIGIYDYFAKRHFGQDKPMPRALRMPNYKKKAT
Experimental: HSD II protein purification: The method for purification of baculovirus-expressed HSD II was standardized as follows. The insect cell pellet containing recombinant HSD II was lysed in 2.5 volumes of lysis buffer (40 mM Tris, pH 7.5, 1 mM EDTA, 2 mM DTT, 10 uM NAD) containing 500 uM AEBSF, 10 ug/ml aprotinin, 1 uM pepstatin A, and 100 uM leupeptin. The pellet was nutated for 30 min in this buffer. Subsequently, the pellet was homogenized with 15 strokes using a glass and teflon potter. The volume was doubled with a 2× sucrose/NaCl solution (500 mM sucrose, 300 mM NaCl in lysis buffer). After centrifugation at 10,000×g for 30 min, the supernatant was decanted and stored at −20° C. The pellet was resuspended in 2.5 volumes of lysis buffer containing 250 mM sucrose and 150 mM NaCl. Homogenization was repeated (15 strokes) and the suspension was centrifuged again and the decanted supernatant was stored at −20° C. The pellet was resuspended with 2 times the original pellet volume in lysis buffer containing 150 mM NaCl and 1% Triton X-100. The suspension was nutated for 20 min and then homogenized with 5 strokes. Subsequently, the suspension was centrifuged at 30,000×g for 1 h and supernatant was decanted and poured into a chromatographic column. Sephadex G-25 (fine) was added in small amounts, allowing approximately 15 min after each addition for complete swelling. Sephadex addition was continued until all liquid was absorbed. The protein was eluted with 1 void volume of lysis buffer and eluate monitored at 280 nm optical density. The chromatographic procedure was repeated and an equal volume of glycerol was added to the final eluate.
Primary assay: After titration, the HSD II prep, generated with the standard protocol, was diluted to the appropriate concentration (generally 1/15 dilution). 55 μl of assay buffer (50 mM Hepes, pH 8.0) was added to all wells of a 96 well plate. 5 μl of 5% DMSO were added to wells A1-C1, A2-C2, F1-H1, and F2-H2. A 10 μl aliquot of a 10 mM solution in DMSO of each compound was diluted in 190 μl of assay buffer. The plate with these compound dilutions was then mixed for 15 min on a shaker and a 5 μl aliquot from each well was added to the […]. This was followed by 10 μl of HSD II enzyme ( 1/15 dilution)/estradiol mix in assay buffer containing 1% Triton X-100. The estradiol […] from a 20 mM estradiol DMSO stock solution, which was diluted 1/20 (50 μl/ml) in 50 mM Hepes buffer containing 1% Triton X-100. All wells, except F1-H1 and F2-H2, also received 10 μl of 25 mg/ml NAD (SIGMA) in 100 mM Hepes, pH 9. The blank wells F1-H1 and F2-H2 received 10 μl of NAD buffer. 20 μl of PMS:MTS solution (100 μl PMS into 1800 μl MTS, Promega) was added to all wells. The plate was covered with aluminum foil and incubated at room temperature for 1.5 h. The plate was analyzed at 490 nm on a Hewlett Pachard 8453 spectrophotometer and results were calculated.

[2] = read-out: IC50 values ≧2 μM and <10 μM

Structure (SMILES) | IC50 [1] | melting point | IC50 [1, 2]
CN1C(=O)C[C@H](c2ccccc2)[C@@H]1[C@H](O)c1ccc(-c2ccccc2F)s1 (racemic) [Example 71] | < 500 nM | 216 °C | –
Cc1ccc(-c2ccc(C(O)C3C(c4ccccc4)CC(=O)N3C)o2)cc1 (stereo not shown) [Example 115] | – | 187 °C | 2000 to 10000 nM
CN1C(=O)CC(c2ccccc2)C1C(O)c1ccc(-c2ccc(O)cc2)s1 (stereo not shown) [Example 52] | < 500 nM | 184 to 186 °C (dec.) | –
CN1C(=O)C[C@H](c2ccccc2)[C@@H]1[C@H](O)c1ccc(-c2cccc(NS(C)(=O)=O)c2)s1 (racemic) [Example 73] | < 500 nM | 199 °C | –
COc1cccc(-c2ccc(C(O)C3C(c4ccccc4)CC(=O)N3C)s2)c1 (racemic) [Example 31] | < 500 nM | 128 °C | –
CN1C(=O)CC(c2ccccc2)C1C(O)c1ccc(S(=O)(=O)N2CCOCC2)s1 (stereo not shown) [Example 36] | < 500 nM | 214 to 218 °C | –
Cc1ccc(C)n1-c1cccc(C#C[C@@H](O)[C@H]2[C@@H](c3ccccc3)CC(=O)N2C)c1 (racemic) [Example 131] | < 500 nM | 175 to 176 °C | –
CN1C(=O)CC(c2ccccc2)C1C(O)c1ccc(S(=O)(=O)N2CCN(c3ccc(F)cc3)CC2)s1 (racemic) [Example 37] | < 500 nM | 167 to 175 °C | –
CN1C(=O)CC(c2ccccc2)C1C(O)C#Cc1ccc(F)cc1 (stereo not shown) [Example 124] | < 500 nM | 154 to 156 °C | –
CN1C(=O)CC(c2ccccc2)C1C(O)Cc1nc(-c2ccccc2)cs1 (stereo not shown) [Example 138] | – | 189 °C | 2000 to 10000 nM
C#Cc1ccc([C@@H](O)[C@H]2[C@@H](c3ccccc3)CC(=O)N2C)s1 (relative stereo) [Example 23, (±)-(4R*,5R*)-5-[(1S*)(5-ethynyl(2-thienyl))hydroxymethyl]-1-methyl-4-phenylpyrrolidin-2-one] | < 500 nM | 187 °C | –
CN1C(=O)C[C@H](c2ccccc2)[C@@H]1[C@H](O)C#Cc1ccc(-c2ccccc2)cc1 (racemic) [Example 136] | – | 217 to 218 °C | 2000 to 10000 nM
CO[C@H](c1cccc(Cl)c1)[C@H]1[C@@H](c2ccccc2)CC(=O)N1C [Example 142] | – | 95 to 96 °C | 2000 to 10000 nM
Cc1cc(-c2ccccc2)c([C@@H](O)[C@H]2[C@@H](c3ccccc3)CC(=O)N2C)s1 (racemic) [Example 43] | < 500 nM | 85 °C | –
